# Test results: patent US9708314B2, “Heterocyclic amide compound” (NISSAN CHEMICAL INDUSTRIES, LTD., priority 2013, dated 2017)
# Legend:
# Assay type in all cases: in vivo
# [1] = test system: transplanted Oryza sativa; experiment: Test Example 1: effect on crop, application before weed generation in submerged conditions; conditions: Application herbicide amount 320 g/ha; Seventeenth Table
# Summary of the method: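 Pre-emergence water-surface application under 4 cm flooding, same day as sowing, with rice transplanted at 2.5 leaf stage. Dose given as g/ha. Plants grown at 25° C. to 30° C. and rated three weeks later on a 0 (≤5%) to 5 (≥90%) herbicidal-ratio scale.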
# Digitaria ciliaris = experiment: Test Example 4: herbicidal effect by application to foliage (diluvial soil, plastic box); conditions: Application herbicide amount 320 g/ha; foliage application
# Summary of the method: (§1)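 Seeds sown in sterilized diluvial soil, covered ~1.5 cm, grown 14 days in greenhouse at 25° C. to 30° C. Emulsion formulation diluted in water to set rate (g/ha) and sprayed onto stems and leaves. Effect scored visually 3 weeks later on 0–5 scale (5 = ≥90% herbicidal ratio, 0 = ≤5%).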
# Galium spurium = experiment: as above; conditions: Application herbicide amount 320 g/ha; foliage application
# Summary of the method: as §1
# Amaranthus retroflexus = experiment: as above; conditions: Application herbicide amount 320 g/ha; foliage application
# Summary of the method: as §1
# Chenopodium album = experiment: as above; conditions: Application herbicide amount 320 g/ha; foliage application
# Summary of the method: as §1
# Avena fatua = experiment: as above; conditions: Application herbicide amount 320 g/ha; foliage application
# Summary of the method: as §1
# Stellaria media = experiment: as above; conditions: Application herbicide amount 320 g/ha; foliage application
# Summary of the method: as §1
# Lolium multiflorum Lam. = experiment: as above; conditions: Application herbicide amount 320 g/ha; foliage application
# Summary of the method: as §1
# Veronica persica = experiment: as above; conditions: Application herbicide amount 320 g/ha; foliage application
# Summary of the method: as §1
# [2] = test system: Echinochloa crus-galli var. crus-galli; experiment: as above; conditions: Application herbicide amount 320 g/ha; foliage application
# Summary of the method: as §1
# Abutilon theophrasti = experiment: as above; conditions: Application herbicide amount 320 g/ha; foliage application
# Summary of the method: as §1
# Apera spica-venti. = experiment: as above; conditions: Application herbicide amount 320 g/ha; foliage application
# Summary of the method: as §1
# Alopecurus myosuroides = experiment: as above; conditions: Application herbicide amount 320 g/ha; foliage application
# Summary of the method: as §1
# Setaria viridis = experiment: as above; conditions: Application herbicide amount 320 g/ha; foliage application
# Summary of the method: as §1
# Zea mays = experiment: Test Example 4: effect on crop by application to foliage (diluvial soil, plastic box); conditions: Application herbicide amount 320 g/ha; foliage application
# Summary of the method: as §1
# Brassica campestris L. = experiment: as above; conditions: Application herbicide amount 320 g/ha; foliage application
# Summary of the method: as §1
# [3] = test system: directly sowed Oryza sativa; experiment: as above; conditions: Application herbicide amount 320 g/ha; foliage application
# Summary of the method: as §1
# Glycine max = experiment: as above; conditions: Application herbicide amount 320 g/ha; foliage application
# Summary of the method: as §1
# [4] = test system: Beta vulgaris ssp. vulgaris; experiment: as above; conditions: Application herbicide amount 320 g/ha; foliage application
# Summary of the method: as §1
# Triticum aestivum = experiment: as above; conditions: Application herbicide amount 320 g/ha; foliage application
# Summary of the method: as §1
Structure (SMILES),a: transplanted Oryza sativa (effect on crop grade) [1],F (Digitaria ciliaris) herbicidal effect grade (Digitaria ciliaris),Q (Galium spurium) herbicidal effect grade (Galium spurium),N (Amaranthus retroflexus) herbicidal effect grade (Amaranthus retroflexus),O (Chenopodium album) herbicidal effect grade (Chenopodium album),I (Avena fatua) herbicidal effect grade (Avena fatua),P (Stellaria media) herbicidal effect grade (Stellaria media),K (Lolium multiflorum Lam.) herbicidal effect grade (Lolium multiflorum Lam.),R (Veronica persica) herbicidal effect grade (Veronica persica),H (Echinochloa crus-galli var. crus-galli) herbicidal effect grade [2],M (Abutilon theophrasti) herbicidal effect grade (Abutilon theophrasti),L (Apera spica-venti.) herbicidal effect grade (Apera spica-venti.),J (Alopecurus myosuroides) herbicidal effect grade (Alopecurus myosuroides),G (Setaria viridis) herbicidal effect grade (Setaria viridis),c (Zea mays) effect on crop grade (Zea mays),g (Brassica campestris L.) effect on crop grade (Brassica campestris L.),b (directly sowed Oryza sativa) effect on crop grade [3],d (Glycine max) effect on crop grade (Glycine max),f (Beta vulgaris ssp. vulgaris) effect on crop grade [4],e (Triticum aestivum) effect on crop grade (Triticum aestivum)
O=C(Nc1nnco1)c1ccc(C(F)(F)F)n2c(C3CC3)nnc12 [1-144],1 (Herbicidal ratio of 5% or more and less than 20%),3 (Herbicidal ratio of 40% or more and less than 70%),3 (Herbicidal ratio of 40% or more and less than 70%),4 (Herbicidal ratio of 70% or more and less than 90%),5 (Herbicidal ratio of 90% or more (almost completely withered)),2 (Herbicidal ratio of 20% or more and less than 40%),5 (Herbicidal ratio of 90% or more (almost completely withered)),1 (Herbicidal ratio of 5% or more and less than 20%),4 (Herbicidal ratio of 70% or more and less than 90%),5 (Herbicidal ratio of 90% or more (almost completely withered)),2 (Herbicidal ratio of 20% or more and less than 40%),0 (Herbicidal ratio of 5% or less (almost no effect)),1 (Herbicidal ratio of 5% or more and less than 20%),2 (Herbicidal ratio of 20% or more and less than 40%),0 (Herbicidal ratio of 5% or less (almost no effect)),4 (Herbicidal ratio of 70% or more and less than 90%),0 (Herbicidal ratio of 5% or less (almost no effect)),4 (Herbicidal ratio of 70% or more and less than 90%),5 (Herbicidal ratio of 90% or more (almost completely withered)),1 (Herbicidal ratio of 5% or more and less than 20%)
CCC(CC)c1nnc2c(C(=O)Nc3nnco3)ccc(C(F)(F)F)n12 [1-145],4 (Herbicidal ratio of 70% or more and less than 90%),5 (Herbicidal ratio of 90% or more (almost completely withered)),1 (Herbicidal ratio of 5% or more and less than 20%),4 (Herbicidal ratio of 70% or more and less than 90%),5 (Herbicidal ratio of 90% or more (almost completely withered)),3 (Herbicidal ratio of 40% or more and less than 70%),5 (Herbicidal ratio of 90% or more (almost completely withered)),2 (Herbicidal ratio of 20% or more and less than 40%),5 (Herbicidal ratio of 90% or more (almost completely withered)),5 (Herbicidal ratio of 90% or more (almost completely withered)),3 (Herbicidal ratio of 40% or more and less than 70%),3 (Herbicidal ratio of 40% or more and less than 70%),1 (Herbicidal ratio of 5% or more and less than 20%),4 (Herbicidal ratio of 70% or more and less than 90%),0 (Herbicidal ratio of 5% or less (almost no effect)),3 (Herbicidal ratio of 40% or more and less than 70%),3 (Herbicidal ratio of 40% or more and less than 70%),3 (Herbicidal ratio of 40% or more and less than 70%),5 (Herbicidal ratio of 90% or more (almost completely withered)),2 (Herbicidal ratio of 20% or more and less than 40%)
CSCc1nnc2c(C(=O)Nc3nnco3)ccc(C(F)(F)F)n12 [1-146],3 (Herbicidal ratio of 40% or more and less than 70%),5 (Herbicidal ratio of 90% or more (almost completely withered)),5 (Herbicidal ratio of 90% or more (almost completely withered)),5 (Herbicidal ratio of 90% or more (almost completely withered)),5 (Herbicidal ratio of 90% or more (almost completely withered)),4 (Herbicidal ratio of 70% or more and less than 90%),5 (Herbicidal ratio of 90% or more (almost completely withered)),4 (Herbicidal ratio of 70% or more and less than 90%),5 (Herbicidal ratio of 90% or more (almost completely withered)),5 (Herbicidal ratio of 90% or more (almost completely withered)),4 (Herbicidal ratio of 70% or more and less than 90%),4 (Herbicidal ratio of 70% or more and less than 90%),2 (Herbicidal ratio of 20% or more and less than 40%),5 (Herbicidal ratio of 90% or more (almost completely withered)),0 (Herbicidal ratio of 5% or less (almost no effect)),5 (Herbicidal ratio of 90% or more (almost completely withered)),5 (Herbicidal ratio of 90% or more (almost completely withered)),5 (Herbicidal ratio of 90% or more (almost completely withered)),5 (Herbicidal ratio of 90% or more (almost completely withered)),3 (Herbicidal ratio of 40% or more and less than 70%)
O=C(Nc1nnco1)c1ccc(C(F)(F)F)n2c(-c3ccc(F)cc3)nnc12 [1-147],2 (Herbicidal ratio of 20% or more and less than 40%),4 (Herbicidal ratio of 70% or more and less than 90%),3 (Herbicidal ratio of 40% or more and less than 70%),4 (Herbicidal ratio of 70% or more and less than 90%),5 (Herbicidal ratio of 90% or more (almost completely withered)),3 (Herbicidal ratio of 40% or more and less than 70%),5 (Herbicidal ratio of 90% or more (almost completely withered)),3 (Herbicidal ratio of 40% or more and less than 70%),5 (Herbicidal ratio of 90% or more (almost completely withered)),4 (Herbicidal ratio of 70% or more and less than 90%),3 (Herbicidal ratio of 40% or more and less than 70%),3 (Herbicidal ratio of 40% or more and less than 70%),2 (Herbicidal ratio of 20% or more and less than 40%),3 (Herbicidal ratio of 40% or more and less than 70%),0 (Herbicidal ratio of 5% or less (almost no effect)),5 (Herbicidal ratio of 90% or more (almost completely withered)),0 (Herbicidal ratio of 5% or less (almost no effect)),3 (Herbicidal ratio of 40% or more and less than 70%),5 (Herbicidal ratio of 90% or more (almost completely withered)),3 (Herbicidal ratio of 40% or more and less than 70%)
